In ChEMBL document CHEMBL1146320, “Investigating biological activity spectrum for novel quinoline analogues” (Bioorg Med Chem, 2007):
Active and inactive are the calls of the source. The rule behind the calls is not given here.

Experiments:
[1] = Lipophilicity, log K of the compound; type: physicochemical; conditions: octanol/water
SK-N-MC = experiment: Antiproliferative activity against human SK-N-MC cells by MTT assay; type: functional, cell-based
Chlorella vulgaris = experiment: Inhibition of Chlorella vulgaris Beij assessed as reduction of chlorophyll content; type: functional, organism-based
[2] = (§1) Inhibition of photosynthesis in spinach chloroplast; type: functional, Spinacia oleracea
Spinacia oleracea = experiment: as §1; type: functional

| Compound | log K [1] | IC50 (SK-N-MC) [µM] | IC50 (Chlorella vulgaris) [µM] | IC50 [2] [µM] | Activity (Chlorella vulgaris) | Activity (Spinacia oleracea) |
| --- | --- | --- | --- | --- | --- | --- |
| O=C(O)c1cccc2nc(/C=C/c3ccc(Cl)cc3)ccc12 | 1.3976 | > 6.25 | 96 | 487 |  |  |
| Oc1ccc(/N=C/c2ccc3cccc(O)c3n2)cc1 | 1.0911 |  | 17 |  |  |  |
| Cc1ccc2c(N)cc(N)c(O)c2n1 | 0.2707 |  |  | 142 |  |  |
| Cc1ccc2c(C(=O)O)cccc2n1 | 0.3629 | > 6.25 |  | 146 |  |  |
| O=[N+]([O-])c1cc([N+](=O)[O-])c2cccnc2c1O | 0.7154 | > 6.25 |  | 82 |  |  |
| CN(C)C(=O)Nc1ccc(Cl)c(Cl)c1 [DCMU] |  |  |  | 1.9 |  |  |
| Nc1cc(N)c2cccnc2c1O | 0.0522 | > 6.25 | 114 | 185 |  |  |
| O=C(O)c1ccc(C(=O)O)c2nc(/C=C/c3cccc(Br)c3)ccc12 | 1.2171 |  |  |  |  |  |
| Cc1ccc2c([N+](=O)[O-])cc([N+](=O)[O-])c(O)c2n1 | 0.7292 | > 6.25 | 95 | 26 |  |  |
| Oc1cccc2ccc(/C=C/c3cccc(Cl)c3)nc12 | 1.5395 | > 6.25 | 33 | 146 |  |  |
| Oc1cccc2ccc(/C=C/c3ccc(Cl)cc3)nc12 | 1.5558 | 0.77 |  | 448 |  |  |
| Cc1nc2ccccc2c(=O)[nH]1 | 0.1515 | > 6.25 |  |  | inactive | inactive |
| Oc1cccc2ccc(/C=C/c3ccc(Br)cc3)nc12 | 1.5802 | > 6.25 |  | 135 |  |  |
| COc1ccccc1/C=C/c1ccc2cccc(C(=O)O)c2n1 | 1.1922 |  |  |  |  |  |
| Oc1cccc(/N=C/c2ccc3cccc(O)c3n2)c1 | 0.886 |  | 168 |  |  |  |
| O=C(O)c1ccc2ccc(/C=C/c3cccc(Cl)c3)nc2c1 | 1.2858 | > 6.25 |  |  |  |  |
| O=C(O)c1ccc2nc(/C=C/c3ccccc3Cl)ccc2c1 | 1.4787 | > 6.25 | 115 | 215 |  |  |
| NC(=S)N/N=C/c1ncccc1N [TRIAPINE] |  | 0.31 |  |  |  |  |
| Oc1ccccc1/N=C/c1ccc2cccc(O)c2n1 | 0.4308 | > 6.25 | 11 |  |  |  |
